Experiments:
SMARCA2 = SMARCA2 (Homo sapiens, UniProt P51531); test: HiBit assay in engineered HT1080 CRISPR knock-in cell, 6 hrs (B series), SMARCA2; type: cell-based; details: 6 hrs incubation; for DC50: read-out: SMARC A2 HT1080 HiBit DC50; for Dmax: HT-1080, HT1080 CRISPR knock-in cells, read-out: SMARC A2 HT1080 HiBit Dmax (%)
Procedure, shortened: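 Remaining SMARCA2 protein measured as HiBiT luminescence after cell lysis with LgBiT plus lytic substrate. Engineered HT1080 knock-in cells (2000/well) were first treated 6 h at 37 °C with compound at a final 0.1% DMSO.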

SMARCA4 = SMARCA4 (Homo sapiens, UniProt P51532); test: HiBit assay in engineered HT1080 CRISPR knock-in cell, 6 hrs (B series), SMARCA4; type: cell-based; details: 6 hrs incubation; for DC50: read-out: SMARC A4 HT1080 HiBit DC50; for Dmax: HT-1080, HT1080 CRISPR knock-in cells, read-out: SMARC A4 HT1080 HiBit Dmax(%)
Procedure, shortened: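 Engineered HT1080 knock-in cells, 2000 cells/well, 6 hrs compound exposure, 37° C/5% CO2, 0.1% DMSO final. Lytic detection: LgBiT 1:100 plus HiBiT substrate 1:50 in lytic buffer, 10 min shake at RT, luminescence read.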

Chain of SMARCA2 (P51531 whole entry): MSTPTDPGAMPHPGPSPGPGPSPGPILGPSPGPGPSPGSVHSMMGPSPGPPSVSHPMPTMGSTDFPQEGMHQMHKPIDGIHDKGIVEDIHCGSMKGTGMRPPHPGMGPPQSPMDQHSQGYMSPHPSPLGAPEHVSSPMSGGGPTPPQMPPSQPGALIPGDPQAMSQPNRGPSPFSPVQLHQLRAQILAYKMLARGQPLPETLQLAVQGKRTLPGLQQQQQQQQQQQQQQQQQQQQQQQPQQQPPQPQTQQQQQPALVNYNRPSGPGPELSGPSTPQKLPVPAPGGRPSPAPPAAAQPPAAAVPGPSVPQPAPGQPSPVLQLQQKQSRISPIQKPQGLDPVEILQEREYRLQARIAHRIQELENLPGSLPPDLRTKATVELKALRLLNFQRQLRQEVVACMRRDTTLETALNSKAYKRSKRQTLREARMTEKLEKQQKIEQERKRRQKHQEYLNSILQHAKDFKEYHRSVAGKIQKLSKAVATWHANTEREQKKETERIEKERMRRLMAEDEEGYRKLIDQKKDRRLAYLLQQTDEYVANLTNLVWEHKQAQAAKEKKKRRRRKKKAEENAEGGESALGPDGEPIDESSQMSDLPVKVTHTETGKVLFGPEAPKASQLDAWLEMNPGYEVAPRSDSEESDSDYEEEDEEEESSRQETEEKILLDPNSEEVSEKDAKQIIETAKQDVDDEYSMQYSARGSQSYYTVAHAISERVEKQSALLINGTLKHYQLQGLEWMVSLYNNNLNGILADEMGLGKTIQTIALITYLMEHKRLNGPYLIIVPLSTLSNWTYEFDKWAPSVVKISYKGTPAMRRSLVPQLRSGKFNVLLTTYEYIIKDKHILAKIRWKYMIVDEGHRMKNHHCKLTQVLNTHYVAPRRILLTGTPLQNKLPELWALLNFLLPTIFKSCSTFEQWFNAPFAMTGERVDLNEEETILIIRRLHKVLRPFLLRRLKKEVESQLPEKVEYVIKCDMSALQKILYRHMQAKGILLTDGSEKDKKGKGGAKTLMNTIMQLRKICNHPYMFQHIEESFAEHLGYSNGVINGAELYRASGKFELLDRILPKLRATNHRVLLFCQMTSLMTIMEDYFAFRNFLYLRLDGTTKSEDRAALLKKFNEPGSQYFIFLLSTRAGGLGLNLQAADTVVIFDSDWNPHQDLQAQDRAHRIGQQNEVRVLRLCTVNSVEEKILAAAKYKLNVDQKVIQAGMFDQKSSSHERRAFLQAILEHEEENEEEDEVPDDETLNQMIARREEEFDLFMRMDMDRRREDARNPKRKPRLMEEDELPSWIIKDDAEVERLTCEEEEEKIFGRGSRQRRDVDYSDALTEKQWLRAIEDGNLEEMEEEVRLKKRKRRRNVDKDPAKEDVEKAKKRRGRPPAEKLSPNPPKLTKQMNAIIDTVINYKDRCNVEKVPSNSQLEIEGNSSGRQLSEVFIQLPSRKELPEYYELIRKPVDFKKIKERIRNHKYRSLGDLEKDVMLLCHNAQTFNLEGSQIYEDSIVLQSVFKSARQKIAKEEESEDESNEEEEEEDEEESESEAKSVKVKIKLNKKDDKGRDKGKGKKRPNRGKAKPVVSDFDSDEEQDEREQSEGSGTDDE
Chain of SMARCA4 (P51532 whole entry): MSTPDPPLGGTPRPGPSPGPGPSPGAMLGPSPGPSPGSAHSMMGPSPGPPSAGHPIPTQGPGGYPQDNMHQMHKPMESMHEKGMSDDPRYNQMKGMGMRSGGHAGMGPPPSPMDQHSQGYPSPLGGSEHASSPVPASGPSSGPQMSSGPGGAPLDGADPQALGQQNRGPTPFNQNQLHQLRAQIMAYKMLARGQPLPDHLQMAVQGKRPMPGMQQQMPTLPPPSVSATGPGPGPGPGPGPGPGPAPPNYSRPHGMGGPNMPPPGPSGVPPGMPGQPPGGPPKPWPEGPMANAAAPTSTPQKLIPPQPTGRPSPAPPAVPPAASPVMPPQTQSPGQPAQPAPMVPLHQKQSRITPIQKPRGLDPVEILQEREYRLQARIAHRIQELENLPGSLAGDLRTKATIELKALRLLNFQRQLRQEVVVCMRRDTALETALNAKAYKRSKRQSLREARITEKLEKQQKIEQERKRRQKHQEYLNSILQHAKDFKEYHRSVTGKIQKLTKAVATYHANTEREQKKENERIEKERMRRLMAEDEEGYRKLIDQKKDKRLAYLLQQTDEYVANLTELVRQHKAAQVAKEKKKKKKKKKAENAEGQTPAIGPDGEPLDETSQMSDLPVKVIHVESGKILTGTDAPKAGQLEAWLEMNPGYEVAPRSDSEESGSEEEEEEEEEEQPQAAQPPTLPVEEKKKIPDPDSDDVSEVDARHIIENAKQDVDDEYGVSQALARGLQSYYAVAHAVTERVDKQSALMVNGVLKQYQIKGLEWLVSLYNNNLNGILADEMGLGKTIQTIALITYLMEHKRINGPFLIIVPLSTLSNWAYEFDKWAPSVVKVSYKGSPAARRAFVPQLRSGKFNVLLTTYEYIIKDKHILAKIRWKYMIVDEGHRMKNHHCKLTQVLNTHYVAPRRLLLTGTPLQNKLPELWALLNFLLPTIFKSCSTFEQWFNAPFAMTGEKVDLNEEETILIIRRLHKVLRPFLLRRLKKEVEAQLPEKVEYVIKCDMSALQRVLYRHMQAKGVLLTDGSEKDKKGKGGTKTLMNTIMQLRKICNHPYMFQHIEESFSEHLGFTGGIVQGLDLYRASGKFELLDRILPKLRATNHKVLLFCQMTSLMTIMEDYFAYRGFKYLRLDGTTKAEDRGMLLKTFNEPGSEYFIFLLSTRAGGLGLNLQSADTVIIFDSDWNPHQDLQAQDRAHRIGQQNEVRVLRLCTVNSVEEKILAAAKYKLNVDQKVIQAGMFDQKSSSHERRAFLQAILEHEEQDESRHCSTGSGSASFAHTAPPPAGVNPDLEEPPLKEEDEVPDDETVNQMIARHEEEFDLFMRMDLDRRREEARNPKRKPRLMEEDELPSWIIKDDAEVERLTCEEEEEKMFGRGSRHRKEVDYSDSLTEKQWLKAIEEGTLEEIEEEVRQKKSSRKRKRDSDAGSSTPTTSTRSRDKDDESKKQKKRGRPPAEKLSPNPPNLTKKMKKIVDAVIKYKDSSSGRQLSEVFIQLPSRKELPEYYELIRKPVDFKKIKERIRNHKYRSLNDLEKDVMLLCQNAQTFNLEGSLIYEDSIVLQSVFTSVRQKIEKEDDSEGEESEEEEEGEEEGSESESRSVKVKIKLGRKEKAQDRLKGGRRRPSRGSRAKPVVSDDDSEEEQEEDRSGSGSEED

Row | SMILES | DC50 (SMARCA2; HT1080 CRISPR knock-in cells) [nM] | Dmax (SMARCA2) [%] | DC50 (SMARCA4; HT1080 CRISPR knock-in cells) [nM] | Dmax (SMARCA4) [%] | SMARC A2 HT1080 HiBit Dmax (%) (SMARCA2; HT1080 CRISPR knock-in cells) | SMARC A4 HT1080 HiBit Dmax(%) (SMARCA4; HT1080 CRISPR knock-in cells)
1 | Cc1ncsc1-c1ccc([C@H](C)NC(=O)[C@@H]2C[C@@H](O)CN2C(=O)[C@@H](NC(=O)CCCCn2cc(-c3ccc4c(c3)C(C)(C)c3nc(=O)c5c(Cl)cccc5n3-4)cn2)C(C)(C)C)cc1 [Compound B87, (2S,4R)-1-((S)-2-(5-(4-(4-chloro-7,7-dimethyl-5-oxo-5,7-dihydroindolo[1,2-a]quinazolin-9-yl)-1H-pyrazol-1-yl)pentanamido)-3,3-dimethylbutanoyl)-4-hydroxy-N-((S)-1-(4-(4-methylthiazol-5-yl)phenyl)ethyl)pyrrolidine-2-carboxamide] | 100 to 500 | 50 to 69 | > 1000 | < 50 | – | –
2 | C[C@H](NC(=O)[C@@H]1C[C@@H](O)CN1C(=O)[C@@H](NC(=O)[C@H]1CC[C@H](CN2CCC(c3ccc4c(c3)C(C)(C)c3nc(=O)c5c(Cl)cccc5n3-4)CC2)CC1)C(C)(C)C)c1ccc(-c2ncnn2C)cc1 [Compound B88, (2S,4R)-1-((S)-2-((11,4S)-4-((4-(4-chloro-7,7-dimethyl-5-oxo-5,7-dihydroindolo[1,2-a]quinazolin-9-yl)piperidin-1-yl)methyl)cyclohexane-1-carboxamido)-3,3-dimethylbutanoyl)-4-hydroxy-N-((S)-1-(4-(1-methyl-1H-1,2,4-triazol-5-yl)phenyl)ethyl)pyrrolidine-2-carboxamide] | > 1000 | < 50 | > 1000 | < 50 | – | –
3 | Cc1ncsc1-c1ccc([C@H](C)NC(=O)[C@@H]2C[C@@H](O)CN2C(=O)[C@H](c2cc(N3CCC(C(=O)N4CCC(c5ccc6c(c5)C(C)(C)c5nc(=O)c7c(Cl)cccc7n5-6)CC4)CC3)no2)C(C)C)cc1 [Compound B89, (2S,4R)-1-(2-(3-(4-(4-(4-chloro-7,7-dimethyl-5-oxo-5,7-dihydroindolo[1,2-a]quinazolin-9-yl)piperidine-1-carbonyl)piperidin-1-yl)isoxazol-5-yl)-3-methylbutanoyl)-4-hydroxy-N—((S)-1-(4-(4-methylthiazol-5-yl)phenyl)ethyl)pyrrolidine-2-carboxamide] | < 100 | > 90 | 100 to 500 | > 90 | – | –
4 | Cc1ncsc1-c1ccc([C@H](C)NC(=O)[C@@H]2C[C@@H](O)CN2C(=O)[C@@H](c2cc(N3CCC(C(=O)N4CCC(c5ccc6c(c5)C(C)(C)c5nc(=O)c7c(Cl)cccc7n5-6)CC4)CC3)no2)C(C)C)cc1 [Compound B90, (2S,4R)-1-(2-(3-(4-(4-(4-chloro-7,7-dimethyl-5-oxo-5,7-dihydroindolo[1,2-a]quinazolin-9-yl)piperidine-1-carbonyl)piperidin-1-yl)isoxazol-5-yl)-3-methylbutanoyl)-4-hydroxy-N—((S)-1-(4-(4-methylthiazol-5-yl)phenyl)ethyl)pyrrolidine-2-carboxamide] | < 100 | > 90 | < 100 | > 90 | – | –
5 | Cc1ncsc1-c1ccc([C@H](C)NC(=O)[C@@H]2C[C@@H](O)CN2C(=O)[C@@H](c2cc(OCC3(CN4CCC(c5ccc6c(c5)-n5c(nc(=O)c7c(Cl)cccc75)C6(C)C)CC4)CC3)no2)C(C)C)cc1 [Compound B91, (2S,4R)-1-((R)-2-(3-((1-((4-(4-chloro-7,7-dimethyl-5-oxo-5,7-dihydroindolo[1,2-a]quinazolin-10-yl)piperidin-1-yl)methyl)cyclopropyl)methoxy)isoxazol-5-yl)-3-methylbutanoyl)-4-hydroxy-N-((S)-1-(4-(4-methylthiazol-5-yl)phenyl)ethyl)pyrrolidine-2-carboxamide] | < 100 | > 90 | < 100 | > 90 | – | –
6 | Cc1ncsc1-c1ccc([C@H](C)NC(=O)[C@@H]2C[C@@H](O)CN2C(=O)[C@@H](NC(=O)CCn2cc(-c3ccc4c(c3)-n3c(nc(=O)c5c(Cl)cccc53)C4(C)C)cn2)C(C)(C)C)cc1 [Compound B92, (2S,4R)-1-((S)-2-(3-(4-(4-chloro-7,7-dimethyl-5-oxo-5,7-dihydroindolo[1,2-a]quinazolin-10-yl)-1H-pyrazol-1-yl)propanamido)-3,3-dimethylbutanoyl)-4-hydroxy-N-((S)-1-(4-(4-methylthiazol-5-yl)phenyl)ethyl)pyrrolidine-2-carboxamide] | > 1000 | < 50 | > 1000 | < 50 | – | –
7 | Cc1ncsc1-c1ccc([C@H](C)NC(=O)[C@@H]2C[C@@H](O)CN2C(=O)[C@@H](NC(=O)CCCn2cc(-c3ccc4c(c3)C(C)(C)c3nc(=O)c5c(Cl)cccc5n3-4)cn2)C(C)(C)C)cc1 [Compound B93, (2S,4R)-1-((S)-2-(4-(4-(4-chloro-7,7-dimethyl-5-oxo-5,7-dihydroindolo[1,2-a]quinazolin-9-yl)-1H-pyrazol-1-yl)butanamido)-3,3-dimethylbutanoyl)-4-hydroxy-N—((S)-1-(4-(4-methylthiazol-5-yl)phenyl)ethyl)pyrrolidine-2-carboxamide] | 100 to 500 | 50 to 69 | 100 to 500 | < 50 | – | –
8 | Cc1ncsc1-c1ccc([C@H](C)NC(=O)[C@@H]2C[C@@H](O)CN2C(=O)[C@@H](c2cc(OC3CCC(Cn4cc(-c5ccc6c(c5)-n5c(nc(=O)c7c(Cl)cccc75)C6(C)C)cn4)CC3)no2)C(C)C)cc1 (stereo partly drawn) [Compound B95, (2S,4R)-1-((R)-2-(3-((4-((4-(4-chloro-7,7-dimethyl-5-oxo-5,7-dihydroindolo[1,2-a]quinazolin-10-yl)-1H-pyrazol-1-yl)methyl)cyclohexyl)oxy)isoxazol-5-yl)-3-methylbutanoyl)-4-hydroxy-N-((S)-1-(4-(4-methylthiazol-5-yl)phenyl)ethyl)pyrrolidine-2-carboxamide] | 100 to 500 | 50 to 69 | > 1000 | < 50 | – | –
9 | Cc1ncsc1-c1ccc([C@H](C)NC(=O)[C@@H]2C[C@@H](O)CN2C(=O)[C@@H](c2cc(OC3CCC(Cn4cc(-c5ccc6c(c5)-n5c(nc(=O)c7c(Cl)cccc75)C6(C)C)cn4)CC3)no2)C(C)C)cc1 (stereo partly drawn) [Compound B96, (2S,4R)-1-((R)-2-(3-((4-((4-(4-chloro-7,7-dimethyl-5-oxo-5,7-dihydroindolo[1,2-a]quinazolin-10-yl)-1H-pyrazol-1-yl)methyl)cyclohexyl)oxy)isoxazol-5-yl)-3-methylbutanoyl)-4-hydroxy-N-((S)-1-(4-(4-methylthiazol-5-yl)phenyl)ethyl)pyrrolidine-2-carboxamide] | < 100 | – | 100 to 500 | – | B (B (70-90% degradation)) | D (D (<50% degradation))
10 | Cc1ncsc1-c1ccc([C@H](C)NC(=O)[C@@H]2C[C@@H](O)CN2C(=O)[C@@H](c2cc(OCCCCn3cc(-c4ccc5c(c4)-n4c(nc(=O)c6c(Cl)cccc64)C5(C)C)cn3)no2)C(C)C)cc1 [Compound B97, (2S,4R)-1-((R)-2-(3-(4-(4-(4-chloro-7,7-dimethyl-5-oxo-5,7-dihydroindolo[1,2-a]quinazolin-10-yl)-1H-pyrazol-1-yl)butoxy)isoxazol-5-yl)-3-methylbutanoyl)-4-hydroxy-N-((S)-1-(4-(4-methylthiazol-5-yl)phenyl)ethyl)pyrrolidine-2-carboxamide] | 100 to 500 | 50 to 69 | 100 to 500 | < 50 | – | –
11 | Cc1ncsc1-c1ccc([C@H](C)NC(=O)[C@@H]2C[C@@H](O)CN2C(=O)C(c2cc(OCCCCn3cc(-c4ccc5c(c4)C(C)(C)c4nc(=O)c6c(Cl)cccc6n4-5)cn3)no2)C(C)C)cc1 (stereo partly drawn) [Compound B99, (2S,4R)-1-(2-(3-(4-(4-(4-chloro-7,7-dimethyl-5-oxo-5,7-dihydroindolo[1,2-a]quinazolin-9-yl)-1H-pyrazol-1-yl)butoxy)isoxazol-5-yl)-3-methylbutanoyl)-4-hydroxy-N-((S)-1-(4-(4-methylthiazol-5-yl)phenyl)ethyl)pyrrolidine-2-carboxamide] | < 100 | 50 to 69 | > 1000 | < 50 | – | –
12 | Cc1ncsc1-c1ccc([C@H](C)NC(=O)[C@@H]2C[C@@H](O)CN2C(=O)[C@@H](c2cc(OCC3CCC(N4CCC(c5cccc6c5C(C)(C)c5nc(=O)c7c(Cl)cccc7n5-6)CC4)CC3)no2)C(C)C)cc1 (stereo partly drawn) [Compound B100, (2S,4R)-1-((R)-2-(3-((4-(4-(4-chloro-7,7-dimethyl-5-oxo-5,7-dihydroindolo[1,2-a]quinazolin-8-yl)piperidin-1-yl)cyclohexyl)methoxy)isoxazol-5-yl)-3-methylbutanoyl)-4-hydroxy-N-((S)-1-(4-(4-methylthiazol-5-yl)phenyl)ethyl)pyrrolidine-2-carboxamide] | < 100 | 70 to 90 | < 100 | < 50 | – | –
13 | Cc1ncsc1-c1ccc([C@H](C)NC(=O)[C@@H]2C[C@@H](O)CN2C(=O)[C@@H](NC(=O)CCn2cc(-c3ccc4c(c3)C(C)(C)c3nc(=O)c5c(Cl)cccc5n3-4)cn2)C(C)(C)C)cc1 [Compound B101, (2S,4R)-1-((S)-2-(3-(4-(4-chloro-7,7-dimethyl-5-oxo-5,7-dihydroindolo[1,2-a]quinazolin-9-yl)-1H-pyrazol-1-yl)propanamido)-3,3-dimethylbutanoyl)-4-hydroxy-N-((S)-1-(4-(4-methylthiazol-5-yl)phenyl)ethyl)pyrrolidine-2-carboxamide] | > 1000 | < 50 | > 1000 | < 50 | – | –

Source: US20260092071A1, “COMPOUNDS AND COMPOSITIONS AS SMARCA2/4 DEGRADERS AND USES THEREOF” (REGENTS OF THE UNIVERSITY OF MICHIGAN, priority 2022, published 2026)
